This is an account of results in patent US8772269B2, “Use of sulfonamide-including compounds in combination with angiogenesis inhibitors” (Eisai R&D Management Co., Ltd., priority 2004, dated 2014).

The pIC50 is the negative decadic logarithm of the IC50, by convention in mol/L.

Experiment [1] concerns human renal cancer cell line 786-O. The experiment is described as follows: Subcutaneous transplantation model of 786-O, E7820 and Compound A. The format is in vivo, nude mice. The following applies: E7820 100 mg/kg twice a day, Compound A 100 mg/kg once a day, oral, 2 weeks; alone or combined. On the procedure: Human renal cancer cell line 786-O (purchased from ATCC) was cultured in RPMI1640 (containing 10% FBS) to about 80% confluency in a 5% carbon dioxide incubator, and the cells were collected by trypsin-EDTA. The cells were diluted with 50% Matrigel-containing phosphate buffer to prepare a 1×10^8 cells/mL suspension, and the resulting cell suspension was subcutaneously transplanted in 0.1 mL volumes to nude mice at the side of their body. Starting from 7 days after the transplantation, E7820 (100 mg/kg, given twice a day for 2 weeks) and 4-(3-chloro-4-(cyclopropylaminocarbonyl)aminophenoxy)-7-methoxy-6-quinolinecarboxamide (100 mg/kg, given once a day for 2 weeks) were administered alone or in combination by the oral route. Tumor long and short axes were measured with a digimatic caliper (Mitsutoyo) and used to calculate both tumor volume and relative tumor volume according to the following equations. Tumor volume TV=tumor long axis(mm)×tumor short axis^2(mm^2)/2 Relative tumor volume RTV=tumor volume at the day of measurement/tumor volume at the first day of administration

The subject of a further experiment is HCT116-C9. Kind of experiment: Cell growth inhibition assay (MTT method), cross resistance study. The format is cell-based, human. The note with it: Example 5, HCT116-C9, 72 hours, read-out: antiproliferative activity IC50. From the text:
E7070-resistant sub-clonal cell lines were used to evaluate the antiproliferative activity of E7820, LY186641, LY295501, LY-ASAP and CQS. HCT116-C9 was a sub-clone separated from the human colon cancer cell line HCT116 (American Type Culture Collection, Manassas, Va., U.S.A.), while HCT116-C9-C1 and HCT116-C9-C4 were E7070-resistant sub-clonal cell lines obtained by culturing this HCT116-C9 in the presence of gradually increasing concentrations of E7070 (Molecular Cancer Therapeutics, 2002, 1, 275-286).
These 3 cell lines HCT116-C9, HCT116-C9-C1 and HCT116-C9-C4 were each seeded at 3000 cells/well in 96-well microplates (flat-bottomed) (50 μl/well). After 24 hours, a 3-fold dilution series of each compound was added (50 μl/well). After 72 hours, the cell growth inhibitory activity was evaluated by the MTT method (Mossmann T., J. Immunol. Methods, 1983, 65, 55-63). The least squares method was used to determine the 50% growth inhibitory concentration of each compound against each cancer cell line.
Exactly the same procedure as used in Example 4 was repeated to evaluate the antiproliferative activity of both LY573636 and E7070 using E7070-resistant sub-clonal cell lines.
(Tetrazolium dyes change colour on reduction, which living cells bring about.)

Experiment [2] has as its system human colon cancer cell line Colo320DM. Kind of experiment: Subcutaneous transplantation model of Colo320DM, E7070 and bevacizumab. It counts as in vivo, nude mice. The following applies: E7070 40 mg/kg/day i.v. Day 1-5, bevacizumab 25 mg/kg/day i.v. Days 1, 5, 8, 12; for Relative tumor volume (RTV) Mean ± SD: at Day 23; for Tx4 Mean ± SD: time for tumor to grow 4-fold of initial volume. The method, then: Human colon cancer cell line Colo320DM (purchased from ATCC) was cultured in RPMI1640 (containing 10% FBS) to about 80% confluency in a 5% carbon dioxide incubator, and the cells were collected by trypsin-EDTA. The cells were diluted with Hanks balanced solution to prepare a 5×10^7 cells/ml suspension, and the resulting cell suspension was subcutaneously transplanted in 0.1 mL volumes to nude mice at the side of their body.
After the transplantation, from the time point when the mean tumor volume reached 259 mm^3, E7070 (40 mg/kg/day) and bevacizumab (25 mg/kg/day) were administered alone or in combination.
E7070 alone was administered once a day for 5 days (Day 1 to Day 5) by the intravenous route. Bevacizumab alone was administered twice a week for 2 weeks (Days 1, 5, 8 and 12) by the intravenous route.
The co-treated group was administered with E7070 at Day 1 to Day 5 by the intravenous route and with bevacizumab at Days 1, 5, 8 and 12 by the intravenous route.
After starting the administration, tumor long and short axes were measured at a frequency of twice a week with a digimatic caliper (Mitsutoyo) and used to calculate the tumor volume according to the following equation. Tumor volume TV=tumor long axis(mm)×tumor short axis^2(mm^2)/2
For determination of the anti-tumor effect, the values of the following two parameters were used.
Tx4: Time (days) required for a tumor to grow 4-fold of the initial tumor volume
RTV: Relative tumor volume (RTV) at Day 23* • * RTV=tumor volume at Day 23/initial tumor volume at Day 1
Likewise, if the co-treated group produces a higher anti-tumor effect than the groups treated with either drug alone and has a significance level of 0.05<P<0.10, E7070 and bevacizumab are determined to have a synergistic tendency.

For experiment [3], the system named is Human umbilical vein endothelial cells. Kind of experiment: VEGF-induced cell proliferation in vascular endothelial cell proliferation assay (in vitro). It counts as cell-based. The following applies: 3 days, absorbance relative to untreated cells. On the procedure:
Human umbilical vein endothelial cells were suspended in 2% FBS-containing Human endothelial-SFM Basal Growth Medium (Invitrogen Corporation) and adjusted to 1×10^4 cells/ml. The resulting cell suspension was dispensed in 100 μl aliquots into each well of 96-well plates and cultured at 37° C. in a 5% carbon dioxide incubator. On the next day, a solution containing E7820, a solution containing bevacizumab (Avastin®, purchased from Genentech), and a solution containing both E7820 and bevacizumab were respectively diluted with Human endothelial-SFM Basal Growth Medium containing 20 ng/ml VEGF (Genzyme Techne Corp.) and 2% FBS. The resulting diluted solutions were then added to the individual wells of the plates in a volume of 100 μl/well, followed by further culturing.
The combined effect was calculated according to the equation of Chou et al. (Adv. Enzyme Regul., 22, 27-55, 1984).

Experiment [4] has as its system human colon cancer cell line Colo320DM. The experiment is described as follows: Subcutaneous transplantation model of Colo320DM, E7820 and bevacizumab. It counts as in vivo, nude mice. The note with it: E7820 200 mg/kg twice a day oral 3 weeks; bevacizumab 25 mg/kg twice a week intravenous 3 weeks; alone or combined. On the procedure:
Human colon cancer cell line Colo320DM (purchased from Dainippon Pharmaceutical Co., Ltd., Japan) was cultured at 37° C. in RPMI1640 (containing 10% FBS) to about 80% confluency in a 5% carbon dioxide incubator, and the cells were collected by trypsin-EDTA. The cells were diluted with 50% Matrigel-containing phosphate buffer to prepare a 5×10^7 cells/mL suspension, and the resulting cell suspension was subcutaneously transplanted in 0.1 mL volumes to nude mice at the side of their body. Starting from 7 days after the transplantation, E7820 (200 mg/kg, given twice a day for 3 weeks by the oral route) and bevacizumab (25 mg/kg, given twice a week for 3 weeks by the intravenous route) were administered. Tumor long and short axes were measured with a digimatic caliper (Mitsutoyo) and used to calculate both tumor volume and relative tumor volume according to the following equations. Tumor volume TV=tumor long axis(mm)×tumor short axis^2(mm^2)/2 Relative tumor volume RTV=tumor volume at the day of measurement/tumor volume at the first day of administration

Setting [5] is: compound concentration 0.0006 μg/μl.
The mark [6] stands for this setting: compound concentration 0.0012 μg/μl.
Where [7] appears, read: compound concentration 0.0024 μg/μl.
[8] abbreviates: compound concentration 0.0049 μg/μl.
The mark [9] stands for this setting: compound concentration 0.0098 μg/μl.
The mark [10] stands for this setting: compound concentration 0.0195 μg/μl.
[11] abbreviates: compound concentration 0.0391 μg/μl.
The mark [12] stands for this setting: compound concentration 0.0781 μg/μl.
Where [13] appears, read: compound concentration 0.1563 μg/μl.
Setting [14] is: compound concentration 0.3125 μg/μl.
The mark [15] stands for this setting: compound concentration 0.6250 μg/μl.
[16] abbreviates: compound concentration 1.2500 μg/μl.
Setting [17] is: compound concentration 2.5000 μg/μl.
[18] abbreviates: compound concentration 5.0000 μg/μl.
[19] abbreviates: compound concentration 10.0000 μg/μl.
Setting [20] is: compound concentration 20.0000 μg/μl.
[21] abbreviates: compound concentration 40.0000 μg/μl.

pIC50: −log10 of the molar value.

As for `COc1cc2nccc(Oc3ccc(NC(=O)NC4CC4)c(Cl)c3)c2cc1C(N)=O` [Compound A, 4-(3-chloro-4-(cyclopropylaminocarbonyl)aminophenoxy)-7-methoxy-6-quinolinecarboxamide], the “Relative tumor volume at Day 22 Mean ± SD” value in experiment [1] is recorded as 0.59 ± 0.12.
In the case of `NS(=O)(=O)c1ccc(S(=O)(=O)Nc2cccc3c(Cl)c[nH]c23)cc1` [E7070, N-(3-chloro-1H-indol-7-yl)-4-sulfamoylbenzenesulfonamide], the negative-log IC50 (pIC50) in the experiment with HCT116-C9 was 6.90. In experiment [2], the “Relative tumor volume (RTV) Mean ± SD” value was 2.70 ± 0.97 and the “Tx4 Mean ± SD” value came to 27.0 ± 3.4 days.
For `Cc1ccc(NS(=O)(=O)c2cccc(C#N)c2)c2[nH]cc(C#N)c12` [E7820, N-(3-cyano-4-methyl-1H-indol-7-yl)-3-cyanobenzenesulfonamide], the “% of control” value in experiment [3] (setting [5]) was 98.9 % of control; in experiment [3] (setting [6]), 102.2 % of control; in experiment [3] (setting [7]) it was 104.8 % of control; in experiment [3] (setting [8]), 99.4 % of control; in experiment [3] (setting [9]) it was 97.2 % of control; in experiment [3] (setting [10]), 88.9 % of control. The “% of control” value is listed as 87.9 % of control in experiment [3] (setting [11]); 72.3 % of control in experiment [3] (setting [12]); 60.5 % of control in experiment [3] (setting [13]); 56.2 % of control in experiment [3] (setting [14]); 57.2 % of control in experiment [3] (setting [15]); 47.8 % of control in experiment [3] (setting [16]). Besides, the “% of control” value in experiment [3] (setting [17]) is 41.4 % of control; in experiment [3] (setting [18]), 37.4 % of control; in experiment [3] (setting [19]), 34.4 % of control; in experiment [3] (setting [20]), 33.1 % of control; in experiment [3] (setting [21]), 12.5 % of control. For the same compound, the “Relative tumor volume at Day 22 Mean ± SD” value in experiment [1] came out at 0.80 ± 0.13.
Take “Bevacizumab: human anti-VEGF (vascular endothelial growth factor) monoclonal antibody, purchased from Genentech under the name Avastin [reference compound]”: the “% of control” value in experiment [3] (setting [5]) is given as 96.0 % of control; in experiment [3] (setting [6]), 94.2 % of control; in experiment [3] (setting [7]), 89.5 % of control; in experiment [3] (setting [8]), 88.3 % of control; in experiment [3] (setting [9]) it was 80.8 % of control; in experiment [3] (setting [10]), 78.8 % of control. The “% of control” value is reported as 71.0 % of control in experiment [3] (setting [11]); 68.5 % of control in experiment [3] (setting [12]); 64.2 % of control in experiment [3] (setting [13]); 62.0 % of control in experiment [3] (setting [14]); 60.1 % of control in experiment [3] (setting [15]); 56.1 % of control in experiment [3] (setting [16]). Further, the “% of control” value in experiment [3] (setting [17]) is listed as 51.8 % of control; in experiment [3] (setting [18]) it was 54.8 % of control; in experiment [3] (setting [19]) it was 53.2 % of control; in experiment [3] (setting [20]), 50.4 % of control; in experiment [3] (setting [21]) it was 51.7 % of control. The “Relative tumor volume at Day 22 Mean ± SD” value in experiment [4] worked out at 5.1 ± 0.8. Besides, in experiment [2], the “Relative tumor volume (RTV) Mean ± SD” value is given as 2.84 ± 0.68. Besides, the “Tx4 Mean ± SD” value in experiment [2] is recorded as 26.3 ± 2.8 days.
